Test results reported in patent publication US20230111212A1, “MUSCLE TARGETING COMPLEXES AND USES THEREOF FOR TREATING DYSTROPHINOPATHIES” (Dyne Therapeutics, Inc., priority 2020, published 2023).

What was measured:
creatine kinase = creatine kinase activity levels in mdx mice; assay type: in vivo, mouse; conditions: single i.v. dose 30 mg/kg, two and four weeks after injection
Procedure: (§1) Each experimental condition was replicated in five mdx mice. Five wild-type mice (healthy mice) were also dosed with vehicle control (saline).
All mice in this Example were further tested for creatine kinase activity levels two weeks and four weeks after injection.

[1] = test system: mdx mice (DMD mouse model); test: open field chamber experiment with hind limb fatigue challenge; assay type: in vivo; conditions: single i.v. dose 30 mg/kg, two weeks after injection
Procedure: as §1
Two weeks after injection, the functional activity of all treated mice was determined using an open field chamber experiment. The experiment involved three consecutive stages: (1) a 10-minute period during which each mouse was placed into an open field chamber; (2) a 10-minute period during which each mouse was subjected to a hind limb fatigue challenge; and (3) a 10-minute period during which each mouse was placed into an open field chamber. The total horizontal distances traveled during stages (1) and (3) were collected. The percent change in the total distance traveled between the first and second tests.

[2] = test system: mdx mice (DMD mouse model); test: cage running wheel test; assay type: in vivo; conditions: single i.v. dose 30 mg/kg, four weeks after injection, 24-hour period
Procedure: as §1
Four weeks after injection, the activity of all treated mice was determined using a cage running wheel test. Each mouse was individually placed into cages with a running wheel for a 24-hour period. The 24-hour period involved five hours of light on followed by thirteen hours of darkness, and ending with six hours of light. The total distance traveled (in meters, m) by each mouse on the running wheel was continuously collected throughout the 24-hour period and subsequently binned into discrete one-hour increments.

## MDX-ASO: naked exon 23 skipping PMO ASO; GGCCAAACCUCGGCUUACCUGAAAU (SEQ ID NO: 277) (PMO chemistry, chemistry not fully specified)
Creatine kinase
  creatine kinase activity levels: no significant benefit
[1]
  average decrease of total horizontal distance traveled during stage (3) relative to stage (1): about 85%
  functional performance in open field chamber experiment: same compromised functional performance as those treated with vehicle
[2]
  distance traveled on running wheel during the dark period: considerably shorter distances
